Reference: ChEMBL document CHEMBL3885881, “DrugMatrix”

Species on record: Rattus norvegicus
Assay: DrugMatrix - Regimen: Daily Repeat
Format: toxicity, organism-based, Sprague-Dawley
Parameters: regimen Daily Repeat, gender Male, age 6-8 weeks
Settings: in vivo, sc, route subcutaneous, vehicle 100 % WATER; for ABSOLUTE BASOPHIL / ABSOLUTE EOSINOPHIL / ABSOLUTE LYMPHOCYTE / ABSOLUTE MONOCYTE / ABSOLUTE SEGMENTED NEUTROPHIL / BASOPHIL / EOSINOPHIL / ERYTHROCYTE COUNT / HEMATOCRIT / HEMOGLOBIN / LEUKOCYTE COUNT / LYMPHOCYTE / MEAN CORPUSCULAR HEMOGLOBIN / MEAN CORPUSCULAR HEMOGLOBIN CONCENTRATION / MEAN CORPUSCULAR VOLUME / MONOCYTE / NEUTROPHIL / NUCLEATED RED BLOOD CELLS / PLATELET COUNT: tissue Blood; for ALANINE AMINOTRANSFERASE / ALBUMIN / ALKALINE PHOSPHATASE / ASPARTATE AMINOTRANSFERASE / BLOOD UREA NITROGEN / CARBON DIOXIDE / CHLORIDE / CHOLESTEROL / CREATINE PHOSPHOKINASE / CREATININE / GLUCOSE / LACTATE DEHYDROGENASE / LIPASE / PHOSPHORUS / POTASSIUM / SODIUM / TOTAL BILIRUBIN / TOTAL PROTEIN / URIC ACID: tissue Plasma
[1] = 20 mg/kg, 72 h, dose level Low, time 3 day
[2] = 20 mg/kg, 120 h, dose level Low, time 5 day
[3] = 71 mg/kg, 72 h, dose level High, time 3 day
[4] = 71 mg/kg, 120 h, dose level High, time 5 day

## CCN(CC)CC(=O)Nc1c(C)cccc1C [LIDOCAINE]
[1]
  ABSOLUTE BASOPHIL: 0 CELLS/uL
  ABSOLUTE EOSINOPHIL: 58 CELLS/uL
  ABSOLUTE LYMPHOCYTE: 13101.33 CELLS/uL
  ABSOLUTE MONOCYTE: 107 CELLS/uL
  ABSOLUTE SEGMENTED NEUTROPHIL: 1100.33 CELLS/uL
  BASOPHIL: 0%
  EOSINOPHIL: 0.33%
  ERYTHROCYTE COUNT: 5.32 x10E6/uL
  HEMATOCRIT: 35.17%
  HEMOGLOBIN: 13.77 G/DL
  LEUKOCYTE COUNT: 14.37 x10E3/uL
  LYMPHOCYTE: 91.33%
  MEAN CORPUSCULAR HEMOGLOBIN: 25.9 pg
  MEAN CORPUSCULAR HEMOGLOBIN CONCENTRATION: 39.17 G/DL
  MEAN CORPUSCULAR VOLUME: 66.2 fL
  MONOCYTE: 0.67%
  NEUTROPHIL: 7.67%
  NUCLEATED RED BLOOD CELLS: 0 /100WBC
  PLATELET COUNT: 1245 x10E3/uL
  ALANINE AMINOTRANSFERASE: 52.67 u/L
  ALBUMIN: 4.23 G/DL
  ALKALINE PHOSPHATASE: 369 u/L
  ASPARTATE AMINOTRANSFERASE: 87.33 u/L
  BLOOD UREA NITROGEN: 16 mg/dL
  CARBON DIOXIDE: 26.67 mmol/L
  CHLORIDE: 102.67 MEQ/L
  CHOLESTEROL: 79.33 mg/dL
  CREATINE PHOSPHOKINASE: 215.67 u/L
  CREATININE: 0.21 mg/dL
  GLUCOSE: 154.67 mg/dL
  LACTATE DEHYDROGENASE: 355.67 u/L
  LIPASE: 9.67 u/L
  PHOSPHORUS: 15.3 mg/dL
  POTASSIUM: 7.3 MEQ/L
  SODIUM: 148.67 MEQ/L
  TOTAL BILIRUBIN: 0.23 mg/dL
  TOTAL PROTEIN: 6.03 G/DL
  URIC ACID: 1.9 mg/dL
[2]
  ABSOLUTE BASOPHIL: 0 CELLS/uL
  ABSOLUTE EOSINOPHIL: 102.67 CELLS/uL
  ABSOLUTE LYMPHOCYTE: 14629.33 CELLS/uL
  ABSOLUTE MONOCYTE: 338.67 CELLS/uL
  ABSOLUTE SEGMENTED NEUTROPHIL: 1862.67 CELLS/uL
  BASOPHIL: 0%
  EOSINOPHIL: 0.67%
  ERYTHROCYTE COUNT: 5.48 x10E6/uL
  HEMATOCRIT: 33.93%
  HEMOGLOBIN: 13.57 G/DL
  LEUKOCYTE COUNT: 16.93 x10E3/uL
  LYMPHOCYTE: 86.67%
  MEAN CORPUSCULAR HEMOGLOBIN: 24.77 pg
  MEAN CORPUSCULAR HEMOGLOBIN CONCENTRATION: 40 G/DL
  MEAN CORPUSCULAR VOLUME: 61.93 fL
  MONOCYTE: 2%
  NEUTROPHIL: 10.67%
  NUCLEATED RED BLOOD CELLS: 0 /100WBC
  PLATELET COUNT: 1256.33 x10E3/uL
  ALANINE AMINOTRANSFERASE: 59.33 u/L
  ALBUMIN: 3.73 G/DL
  ALKALINE PHOSPHATASE: 375.67 u/L
  ASPARTATE AMINOTRANSFERASE: 92 u/L
  BLOOD UREA NITROGEN: 17.67 mg/dL
  CARBON DIOXIDE: 26 mmol/L
  CHLORIDE: 108 MEQ/L
  CHOLESTEROL: 77.33 mg/dL
  CREATINE PHOSPHOKINASE: 284 u/L
  CREATININE: 0.28 mg/dL
  GLUCOSE: 183.33 mg/dL
  LACTATE DEHYDROGENASE: 154.67 u/L
  LIPASE: 7.67 u/L
  PHOSPHORUS: 13.6 mg/dL
  POTASSIUM: 6.31 MEQ/L
  SODIUM: 149.97 MEQ/L
  TOTAL BILIRUBIN: 0.2 mg/dL
  TOTAL PROTEIN: 5.93 G/DL
  URIC ACID: 2.2 mg/dL
[3]
  ABSOLUTE BASOPHIL: 0 CELLS/uL
  ABSOLUTE EOSINOPHIL: 49.33 CELLS/uL
  ABSOLUTE LYMPHOCYTE: 11993.67 CELLS/uL
  ABSOLUTE MONOCYTE: 172.33 CELLS/uL
  ABSOLUTE SEGMENTED NEUTROPHIL: 684.67 CELLS/uL
  BASOPHIL: 0%
  EOSINOPHIL: 0.33%
  ERYTHROCYTE COUNT: 5.73 x10E6/uL
  HEMATOCRIT: 35.87%
  HEMOGLOBIN: 14.23 G/DL
  LEUKOCYTE COUNT: 12.9 x10E3/uL
  LYMPHOCYTE: 92.67%
  MEAN CORPUSCULAR HEMOGLOBIN: 24.83 pg
  MEAN CORPUSCULAR HEMOGLOBIN CONCENTRATION: 39.7 G/DL
  MEAN CORPUSCULAR VOLUME: 62.57 fL
  MONOCYTE: 1.33%
  NEUTROPHIL: 5.67%
  NUCLEATED RED BLOOD CELLS: 0 /100WBC
  PLATELET COUNT: 1268.67 x10E3/uL
  ALANINE AMINOTRANSFERASE: 46.33 u/L
  ALBUMIN: 4.37 G/DL
  ALKALINE PHOSPHATASE: 401 u/L
  ASPARTATE AMINOTRANSFERASE: 83.67 u/L
  BLOOD UREA NITROGEN: 14.67 mg/dL
  CARBON DIOXIDE: 31.33 mmol/L
  CHLORIDE: 101 MEQ/L
  CHOLESTEROL: 76 mg/dL
  CREATINE PHOSPHOKINASE: 167 u/L
  CREATININE: 0.16 mg/dL
  GLUCOSE: 163.67 mg/dL
  LACTATE DEHYDROGENASE: 124.67 u/L
  LIPASE: 8.67 u/L
  PHOSPHORUS: 15.9 mg/dL
  POTASSIUM: 7.01 MEQ/L
  SODIUM: 145.9 MEQ/L
  TOTAL BILIRUBIN: 0.17 mg/dL
  TOTAL PROTEIN: 6.07 G/DL
  URIC ACID: 1.8 mg/dL
[4]
  ABSOLUTE BASOPHIL: 0 CELLS/uL
  ABSOLUTE EOSINOPHIL: 73.33 CELLS/uL
  ABSOLUTE LYMPHOCYTE: 17902.33 CELLS/uL
  ABSOLUTE MONOCYTE: 276 CELLS/uL
  ABSOLUTE SEGMENTED NEUTROPHIL: 1781.67 CELLS/uL
  BASOPHIL: 0%
  EOSINOPHIL: 0.33%
  ERYTHROCYTE COUNT: 5.66 x10E6/uL
  HEMATOCRIT: 36.7%
  HEMOGLOBIN: 14.53 G/DL
  LEUKOCYTE COUNT: 20.03 x10E3/uL
  LYMPHOCYTE: 89%
  MEAN CORPUSCULAR HEMOGLOBIN: 25.67 pg
  MEAN CORPUSCULAR HEMOGLOBIN CONCENTRATION: 39.6 G/DL
  MEAN CORPUSCULAR VOLUME: 64.93 fL
  MONOCYTE: 1.33%
  NEUTROPHIL: 9.33%
  NUCLEATED RED BLOOD CELLS: 0 /100WBC
  PLATELET COUNT: 1384.67 x10E3/uL
  ALANINE AMINOTRANSFERASE: 60 u/L
  ALBUMIN: 4.13 G/DL
  ALKALINE PHOSPHATASE: 376.33 u/L
  ASPARTATE AMINOTRANSFERASE: 98.33 u/L
  BLOOD UREA NITROGEN: 15.33 mg/dL
  CARBON DIOXIDE: 33.67 mmol/L
  CHLORIDE: 101 MEQ/L
  CHOLESTEROL: 68.33 mg/dL
  CREATINE PHOSPHOKINASE: 240.33 u/L
  CREATININE: 0.42 mg/dL
  GLUCOSE: 147.33 mg/dL
  LACTATE DEHYDROGENASE: 198 u/L
  LIPASE: 10.67 u/L
  PHOSPHORUS: 14.23 mg/dL
  POTASSIUM: 6.88 MEQ/L
  SODIUM: 148.27 MEQ/L
  TOTAL BILIRUBIN: 0.2 mg/dL
  TOTAL PROTEIN: 6.17 G/DL
  URIC ACID: 1.4 mg/dL
